According to US20230011869A1 (Hoffmann-La Roche Inc., priority 2018, published 2023):
Where a name gives a salt, the structure may show the parent alone.

The compounds below were run on Acinetobacter baumannii ATCC17978 (assay: Antimicrobial susceptibility testing: 90% growth inhibitory concentration (IC90) determination, Iso-Sensitest broth). Conditions: 90% growth inhibitory concentration, Acinetobacter baumannii ATCC17978, Iso-Sensitest broth, OD 600 nm over 16 h; read-out: ATCC17978 IC90.
Type: cell-based
Summary of the method: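 A. baumannii ATCC17978 grown in Iso-Sensitest broth across 10 compound concentrations at 35±2 °C.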

Structure (SMILES)	IC90
CCc1cc(Nc2nccn3c(-c4ccc(OC)c(F)c4)cnc23)ccc1C(=O)N1CCN(C(=O)CNC)CC1 [Example 398, 1-[4-[2-ethyl-4-[[3-(3-fluoro-4-methoxyphenyl)imidazo[1,2-a]pyrazin-8-yl]amino]benzoyl]piperazin-1-yl]-2-(methylamino)ethanone; hy-drochloride]	370 nM
COc1ccc(-c2cnc3c(Nc4ccc(C(=O)N5CCC(CNCCC#N)CC5)c(C)c4)nccn23)cc1 [Example 399, 3-[[1-[4-[[3-(4-methoxyphenyl)imidazo[1,2-a]pyrazin-8-yl]amino]-2-methylbenzoyl]piperidin-4-yl]methylamino]propanenitrile]	380 nM
COc1ccc(-c2cnc3c(Nc4ccc(C(=O)N5CCC(N6CCC(O)CC6)CC5)c(C)c4)nccn23)cc1F [Example 401, [4-[[3-(3-fluoro-4-methoxyphenyl)imidazo[1,2-a]pyrazin-8-yl]amino]-2-methylphenyl]-[4-(4-hydroxypiperidin-1-yl)piperidin-1-yl]methanone]	400 nM
COc1ccc(-c2cnc3c(Nc4ccc(C(=O)N5CCC(C(=O)NCC(O)CO)CC5)c(C)c4)nccn23)cc1F (centres unmarked) [Example 402, N-(2,3-dihydroxypropyl)-1-[4-[[3-(3-fluoro-4-methoxyphenyl)imidazo[1,2-a]pyrazin-8-yl]amino]-2-methylbenzoyl]piperidine-4-carboxamide]	430 nM
COc1ccc(-c2cnc3c(Nc4ccc(C(=O)N5CCN(S(=O)(=O)N(C)C)CC5)c(C)c4)nccn23)cc1F [Example 408, 4-[4-[[3-(3-fluoro-4-methoxyphenyl)imidazo[1,2-a]pyrazin-8-yl]amino]-2-methylbenzoyl]-N,N-dimethylpiperazine-1-sulfonamide]	550 nM
COc1ccc(-c2cnc3c(Nc4ccc(C(=O)N5CCN(CC(C)O)CC5)c(C)c4)nccn23)cc1F (centres unmarked) [Example 410, [4-[[3-(3-fluoro-4-methoxyphenyl)imidazo[1,2-a]pyrazin-8-yl]amino]-2-methylphenyl]-[4-(2-hydroxypropyl)piperazin-1-yl]methanone]	670 nM
COc1ccc(-c2cnc3c(Nc4ccc(C(=O)N5CCN(CCOCCO)CC5)c(C)c4)nccn23)cc1F [Example 411, [4-[[3-(3-fluoro-4-methoxyphenyl)imidazo[1,2-a]pyrazin-8-yl]amino]-2-methylphenyl]-[4-[2-(2-hydroxyethoxy)ethyl]pipera-zin-1-yl]methanone]	720 nM
COc1ccc(-c2cnc3c(Nc4ccc(C(=O)N5CC6(CNC6)C5)c(C)c4)nccn23)cc1F [Example 413, 2,6-diazaspiro[3.3]heptan-2-yl-[4-[[3-(3-fluoro-4-methoxyphenyl)imidazo[1,2-a]pyrazin-8-yl]amino]-2-methylphenyl]methanone; for-mic acid]	770 nM
COc1ccc(-c2cnc3c(Nc4ccc(C(=O)NC5CC6(CNC6)C5)c(C)c4)nccn23)cc1F [Example 414, N-(2-azaspiro[3.3]heptan-6-yl)-4-[[3-(3-fluoro-4-methoxyphenyl)imidazo[1,2-a]pyrazin-8-yl]amino]-2-methylbenzamide; hydrochlo-ride]	770 nM
COc1ccc(-c2cnc3c(Nc4ccc(C(=O)N5CCC6(CNC6)C5)c(C)c4)nccn23)cc1F [Example 417, 2,6-diazaspiro[3.4]octan-6-yl-[4-[[3-(3-fluoro-4-methoxyphenyl)imidazo[1,2-a]pyrazin-8-yl]amino]-2-methylphenyl]methanone; hy-drochloride]	960 nM
COc1ccc(-c2cnc3c(Nc4ccc(C(=O)N5CCC(C(=O)NCCn6ccnc6)CC5)c(C)c4)nccn23)cc1F [Example 418, 1-[4-[[3-(3-fluoro-4-methoxyphenyl)imidazo[1,2-a]pyrazin-8-yl]amino]-2-methylbenzoyl]-N-(2-imidazol-1-ylethyl)piperidine-4-carboxamide]	1000 nM

Same assay, conditions: Acinetobacter baumannii, ATCC17978, 16 h, read-out: ATCC17978 IC90, 90% growth inhibitory concentration, Acinetobacter baumannii ATCC17978, Iso-Sensitest broth, OD 600 nm over 16 h

Structure (SMILES)	IC90
COc1ccc(-c2cnc3c(Nc4ccc(C(=O)N5CCC(C(=O)N6CC7(CNC7)C6)CC5)c(C)c4)nccn23)cc1F [Example 400, [4-(2,6-diazaspiro[3.3]heptane-2-carbonyl)piperidin-1-yl]-[4-[[3-(3-fluoro-4-methoxyphenyl)imidazo[1,2-a]pyrazin-8-yl]amino]-2-methylphenyl]methanone; 2,2,2-trifluoroacetic acid]	390 nM
COc1ccc(-c2cnc3c(Nc4ccc(C(=O)N5CCC(C(=O)NCC6CNCCN6)CC5)c(C)c4)nccn23)cc1F (centres unmarked) [Example 403, 1-[4-[[3-(3-fluoro-4-methoxyphenyl)imidazo[1,2-a]pyrazin-8-yl]amino]-2-methylbenzoyl]-N-(piperazin-2-ylmethyl)piperidine-4-carboxamide; 2,2,2-trifluoroacetic acid]	440 nM
Cc1cc(Nc2nccn3c(-c4ccc(OC(F)F)cc4)cnc23)ccc1C(=O)N1CCC(C(=O)N(C)CCN2CCNC(=O)C2)CC1 [Example 404, 1-[4-[[3-[4-(difluoromethoxy)phenyl]imi-dazo[1,2-a]pyrazin-8-yl]amino]-2-methylbenzoyl]-N-methyl-N-[2-(3-oxopiperazin-1-yl)ethyl]piperidine-4-carboxamide]	470 nM
Cc1cc(Nc2nccn3c(-c4ccc(OC(F)F)cc4)cnc23)ccc1C(=O)N1CCC(C(=O)NC23CN4CN(CN(C4)C2)C3)CC1 [Example 405, 1-[4-[[3-[4-(difluoromethoxy)phenyl]imi-dazo[1,2-a]pyrazin-8-yl]amino]-2-methylbenzoyl]-N-(1,3,5-triazatricyclo[3.3.1.1^3,7]decan-7-yl)piperidine-4-carboxamide]	480 nM
COc1ccc(-c2cnc3c(Nc4ccc(C(=O)N5CCC(C(=O)N(C)CCCN)CC5)c(C)c4)nccn23)cc1F [Example 406, N-(3-aminopropyl)-1-[4-[[3-(3-fluoro-4-methoxyphenyl)imidazo[1,2-a]pyrazin-8-yl]amino]-2-methylbenzoyl]-N-methylpiperidine-4-carboxamide; hydrochloride]	530 nM
COc1ccc(-c2cnc3c(Nc4ccc(C(=O)N5CCC(C(=O)NC6(C(N)=O)CNC6)CC5)c(C)c4)nccn23)cc1F [Example 407, N-(3-carbamoylazetidin-3-yl)-1-[4-[[3-(3-fluoro-4-methoxyphenyl)imidazo[1,2-a]pyrazin-8-yl]amino]-2-methylbenzoyl]piperidine-4-carboxamide; 2,2,2-trifluoroacetic acid]	540 nM
Cc1cc(Nc2nccn3c(-c4ccc(OC(F)F)cc4)cnc23)ccc1C(=O)N1CCC(C(=O)N(C)CCO)CC1 [Example 409, 1-[4-[[3-[4-(difluoromethoxy)phenyl]imi-dazo[1,2-a]pyrazin-8-yl]amino]-2-methylbenzoyl]-N-(2-hydroxyethyl)-N-methylpiperidine-4-carboxamide]	580 nM
COc1ccc(-c2cnc3c(Nc4ccc(C(=O)N5CCC(C(=O)NCCN6CCNCC6=O)CC5)c(C)c4)nccn23)cc1F [Example 412, 1-[4-[[3-(3-fluoro-4-methoxyphenyl)imidazo[1,2-a]pyrazin-8-yl]amino]-2-methylbenzoyl]-N-[2-(2-oxopiperazin-1-yl)ethyl]piperidine-4-carboxamide; 2,2,2-trifluoroacetic acid]	760 nM
COc1ccc(-c2cnc3c(Nc4ccc(C(=O)N5CCNC6(CC6)C5)c(C)c4)nccn23)cc1F [Example 416, 4,7-diazaspiro[2.5]octan-7-yl-[4-[[3-(3-fluoro-4-methoxyphenyl)imidazo[1,2-a]pyrazin-8-yl]amino]-2-methylphenyl]methanone; 2,2,2-trifluoroacetic acid]	800 nM
